Experimental data reported in patent US20160281050A1, “METHODS FOR TREATING A CULTURE OF HAEMATOCOCCUS PLUVIALIS FOR CONTAMINATION USING SALT AND HYDROGEN PEROXIDE” (HELIAE DEVELOPMENT LLC, priority 2015, published 2016).

Test system: Haematococcus pluvialis (Strain 2)
Assay: % lysis and culture dry weight in flasks (Example 10);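 note: flask cultures run in duplicate, with duplicate untreated flasks serving as controls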
Text: Culture samples of Haematococcus pluvialis (Strain 2) were collected on the second day of the culture from open raceway bioreactor #2430 operating in conditions: reactor volume of 170,000 L; Daily PAR not measured; pH of 7.3; and paddlewheel speed of 70. The culture samples were distributed into flasks for culturing, consisting of duplicate untreated controls and duplicate treatments. […] Samples were taken from the flask cultures daily to quantify % lysis and % chytrid infection and cell dry weight was quantified every other day for a duration of 11 days.

Which results are given for hydrogen peroxide [H2O2]?
% Lysis (0.0105 mL/L 1 time per day for 3 d then every other day, day 0): 0.8 ± 2.0%; % Lysis (0.0105 mL/L 1 time per day for 3 d then every other day, day 3): 0.0 ± 0.0%; % Lysis (0.0105 mL/L 1 time per day for 3 d then every other day, day 4): 1.7 ± 0.0%; % Lysis (0.0105 mL/L 1 time per day for 3 d then every other day, day 5): 1.7 ± 2.4%; % Lysis (0.0105 mL/L 1 time per day for 3 d then every other day, day 6): 3.3 ± 4.7%; % Lysis (0.0105 mL/L 1 time per day for 3 d then every other day, day 7): 0.0 ± 0.0%; % Lysis (0.0105 mL/L 1 time per day for 3 d then every other day, day 8): 0.8 ± 1.2%; % Lysis (0.0105 mL/L 1 time per day for 3 d then every other day, day 9): 0.8 ± 1.2%; % Lysis (0.0105 mL/L 1 time per day for 3 d then every other day, day 10): 0.8 ± 1.2%; % Lysis (0.0105 mL/L 1 time per day, day 0): 0.8 ± 2.0%; % Lysis (0.0105 mL/L 1 time per day, day 3): 0.0 ± 0.0%; % Lysis (0.0105 mL/L 1 time per day, day 4): 1.7 ± 0.0%; % Lysis (0.0105 mL/L 1 time per day, day 5): 1.7 ± 0.0%; % Lysis (0.0105 mL/L 1 time per day, day 6): 0.8 ± 2.0%; % Lysis (0.0105 mL/L 1 time per day, day 7): 0.0 ± 0.0%; % Lysis (0.0105 mL/L 1 time per day, day 8): 1.7 ± 2.4%; % Lysis (0.0105 mL/L 1 time per day, day 9): 7.5 ± 8.3%; % Lysis (0.0105 mL/L 1 time per day, day 10): 0.0 ± 0.0%; percent lysis (0.0105 mL/L, for 11 days): under 10%; % Lysis (0.0140 mL/L 1 time per day for 3 d then every other day, day 0): 0.8 ± 2.0%; % Lysis (0.0140 mL/L 1 time per day for 3 d then every other day, day 3): 4.2 ± 1.2%; % Lysis (0.0140 mL/L 1 time per day for 3 d then every other day, day 4): 10.0 ± 8.7%; % Lysis (0.0140 mL/L 1 time per day for 3 d then every other day, day 5): 15.8 ± 5.9%; % Lysis (0.0140 mL/L 1 time per day for 3 d then every other day, day 6): 6.7 ± 0.0%; % Lysis (0.0140 mL/L 1 time per day for 3 d then every other day, day 7): 13.3 ± 4.7%; % Lysis (0.0140 mL/L 1 time per day for 3 d then every other day, day 8): 13.3 ± 2.4%; % Lysis (0.0140 mL/L 1 time per day for 3 d then every other day, day 9): 5.0 ± 2.4%; % Lysis (0.0140 mL/L 1 time per day for 3 d then every other day, day 10): 15.8 ± 12.9%; % Lysis (0.0140 mL/L 1 time per day, day 0): 0.8 ± 2.0%; % Lysis (0.0140 mL/L 1 time per day, day 3): 4.2 ± 1.2%; % Lysis (0.0140 mL/L 1 time per day, day 4): 10.0 ± 8.7%; % Lysis (0.0140 mL/L 1 time per day, day 5): 10.0 ± 2.4%; % Lysis (0.0140 mL/L 1 time per day, day 6): 9.2 ± 3.5%; % Lysis (0.0140 mL/L 1 time per day, day 7): 20.0 ± 9.4%; % Lysis (0.0140 mL/L 1 time per day, day 8): 6.7 ± 7.0%; % Lysis (0.0140 mL/L 1 time per day, day 9): 21.7 ± 7.1%; % Lysis (0.0140 mL/L 1 time per day, day 10): 9.2 ± 3.5%; percent lysis reached (0.0140 mL/L, by day 7): 20%; % Lysis (0.0175 mL/L 1 time per day for 2 d then every other, day 0): 0.8 ± 2.0%; % Lysis (0.0175 mL/L 1 time per day for 2 d then every other, day 3): 31.7 ± 11.8%; % Lysis (0.0175 mL/L 1 time per day for 2 d then every other, day 4): 22.2 ± 8.5%; % Lysis (0.0175 mL/L 1 time per day for 2 d then every other, day 5): 19.2 ± 17.6%; % Lysis (0.0175 mL/L 1 time per day for 2 d then every other, day 6): 25 ± 0.0%; percent lysis reached (0.0175 mL/L, by day 3 after only being dosed twice): 30%
